Patent US20020035061A1, “COMPOSITIONS AND METHODS FOR TREATING INFECTIONS USING CATIONIC PEPTIDES ALONE OR IN COMBINATION WITH ANTIBIOTICS” (priority 1996, published 2002)
Where two headings read alike, the source gives them in different places.

Experiments:
Format in all cases: cell-based
A. calcoaceticus = tested on: A. calcoaceticus
E. cloacae = tested on: E. cloacae
E. coli = tested on: E. coli
E. faecalis = tested on: E. faecalis
K. pneumoniae = tested on: K. pneumoniae
P. aeruginosa = tested on: P. aeruginosa
S. aureus = tested on: S. aureus
S. epidermidis = tested on: S. epidermidis
S. maltophilia = tested on: S. maltophilia
S. marcescens = tested on: S. marcescens

Row | Sequence | MIC (A. calcoaceticus; A. calcoaceticus AC002) | MIC (E. cloacae; E. cloacae ECL007) | MIC (E. coli; E. coli ECO005) | MIC (E. faecalis; E. faecalis EFS001) | MIC (E. faecalis; E. faecalis EFS008) | MIC (K. pneumoniae; K. pneumoniae KP001) | MIC (P. aeruginosa; P. aeruginosa PA004) | MIC (S. aureus; S. aureus SA014) | MIC (S. aureus; S. aureus SA093) | MIC (S. epidermidis; S. epidermidis SE010) | MIC (S. maltophilia; S. maltophilia SMA002) | MIC (S. marcescens; S. marcescens SMS003) | MIC (A. calcoaceticus; A. calcoaceticus strain AC002) | MIC (E. cloacae; E. cloacae strain ECL007) | MIC (E. coli; E. coli strain ECO005) | MIC (K. pneumoniae; K. pneumoniae strain KP001) | MIC (P. aeruginosa; P. aeruginosa strain PA004) | MIC (S. aureus; S. aureus strain SA093) | MIC (S. epidermidis; S. epidermidis strain SE010) | MIC (S. maltophilia; S. maltophilia strain SMA002) | further results
1 | ILRWPWWPWRRA [MBI 11H12CN] | 4 µg/mL | >128 µg/mL | 16 µg/mL | 2 µg/mL | 8 µg/mL | 16 µg/mL | >128 µg/mL | 2 µg/mL | 1 µg/mL | 4 µg/mL | 64 µg/mL | >128 µg/mL | – | – | – | – | – | – | – | – | –
2 | ILRWPWWPWRRKDMILKKAGS [MBI 11B18CN] | – | – | – | – | – | – | – | – | – | – | – | – | 2 µg/mL | >128 µg/mL | 32 µg/mL | 32 µg/mL | >128 µg/mL | 2 µg/mL | 4 µg/mL | 64 µg/mL | MIC (E. faecalis; E. faecalis strain EFS008): 4 µg/mL; MIC (S. marcescens; S. marcescens strain SMS003): >128 µg/mL
3 | ILRWPWWPWRRKMILKKAGS [MBI 11B17CN] | – | – | – | – | – | – | – | – | – | – | – | – | 2 µg/mL | >128 µg/mL | 8 µg/mL | 16 µg/mL | >128 µg/mL | 2 µg/mL | 4 µg/mL | 32 µg/mL | MIC (E. faecalis; E. faecalis strain EFS008): 4 µg/mL; MIC (S. marcescens; S. marcescens strain SMS003): >128 µg/mL
4 | ILRWPWWPWWPWRRK [MBI 11A9CN] | – | – | – | – | – | – | – | – | – | – | – | – | 8 µg/mL | 128 µg/mL | 32 µg/mL | 32 µg/mL | 128 µg/mL | 2 µg/mL | 4 µg/mL | 32 µg/mL | MIC (E. faecalis; E. faecalis strain EFS001): 2 µg/mL; MIC (E. faecalis; E. faecalis strain EFS008): 8 µg/mL; MIC (S. aureus; S. aureus strain SA014): 4 µg/mL; MIC (S. marcescens; S. marcescens strain SMS003): >128 µg/mL
5 | ILRWWVWWVWWRRK [MBI 11F6CN] | 16 µg/mL | 64 µg/mL | 32 µg/mL | 16 µg/mL | 16 µg/mL | 32 µg/mL | 128 µg/mL | 16 µg/mL | 8 µg/mL | 8 µg/mL | 64 µg/mL | >128 µg/mL | – | – | – | – | – | – | – | – | –
6 | ILRYVYYVYRRK [MBI 11A8CN] | – | – | – | – | – | – | – | – | – | – | – | – | 8 µg/mL | >128 µg/mL | 32 µg/mL | 128 µg/mL | >128 µg/mL | 1 µg/mL | 16 µg/mL | 32 µg/mL | MIC (E. faecalis; E. faecalis strain EFS001): 4 µg/mL; MIC (S. marcescens; S. marcescens strain SMS003): >128 µg/mL
7 | KRRWPWWPWKKLI [MBI 11CNR] | 4 µg/mL | >128 µg/mL | 8 µg/mL | 4 µg/mL | – | 4 µg/mL | 32 µg/mL | – | 4 µg/mL | 4 µg/mL | 32 µg/mL | 128 µg/mL | – | – | – | – | – | – | – | – | –
8 | KRRWPWWPWRLI [MBI 11B7CNR] | – | – | – | – | – | – | – | – | – | – | – | – | 4 µg/mL | 64 µg/mL | 8 µg/mL | 8 µg/mL | 64 µg/mL | 2 µg/mL | 4 µg/mL | 32 µg/mL | MIC (E. faecalis; E. faecalis strain EFS001): 4 µg/mL; MIC (S. marcescens; S. marcescens strain SMS003): >128 µg/mL
9 | KRRWVWWVWRLI [MBI 11F4CNR] | – | – | – | – | – | – | – | – | – | – | – | – | 16 µg/mL | 32 µg/mL | 32 µg/mL | 32 µg/mL | 64 µg/mL | 8 µg/mL | 8 µg/mL | 32 µg/mL | MIC (E. faecalis; E. faecalis strain EFS008): 32 µg/mL; MIC (S. marcescens; S. marcescens strain SMS003): >128 µg/mL
10 | LRWPWWPW [MBI 11G26CN] | 2 µg/mL | >128 µg/mL | 32 µg/mL | 2 µg/mL | 4 µg/mL | 32 µg/mL | >128 µg/mL | 4 µg/mL | 0.5 µg/mL | 4 µg/mL | 128 µg/mL | >128 µg/mL | – | – | – | – | – | – | – | – | –
11 | LRWWWPWRRK [MBI 11G25CN] | 2 µg/mL | >128 µg/mL | 8 µg/mL | 2 µg/mL | 16 µg/mL | 16 µg/mL | 64 µg/mL | 2 µg/mL | 1 µg/mL | 2 µg/mL | 32 µg/mL | >128 µg/mL | – | – | – | – | – | – | – | – | –
12 | LWPWWPWRRK [MBI 11G24CN] | 4 µg/mL | >128 µg/mL | 16 µg/mL | 2 µg/mL | 8 µg/mL | 16 µg/mL | 128 µg/mL | 2 µg/mL | 1 µg/mL | 4 µg/mL | 32 µg/mL | >128 µg/mL | – | – | – | – | – | – | – | – | –
13 | PRIWKPKWRLPKR [MBI 11J01CN] | 4 µg/mL | >128 µg/mL | 64 µg/mL | 128 µg/mL | >128 µg/mL | >128 µg/mL | >128 µg/mL | 16 µg/mL | 2 µg/mL | 32 µg/mL | >128 µg/mL | >128 µg/mL | – | – | – | – | – | – | – | – | –
14 | RWWWPWRRK [MBI 11G28CN] | 2 µg/mL | >128 µg/mL | 8 µg/mL | 4 µg/mL | 32 µg/mL | 64 µg/mL | 128 µg/mL | 4 µg/mL | 1 µg/mL | 4 µg/mL | 32 µg/mL | >128 µg/mL | – | – | – | – | – | – | – | – | –
15 | WPWWPWRRK [MBI 11G27CN] | 2 µg/mL | >128 µg/mL | 16 µg/mL | 8 µg/mL | 32 µg/mL | 32 µg/mL | 128 µg/mL | 4 µg/mL | 1 µg/mL | 8 µg/mL | 32 µg/mL | >128 µg/mL | – | – | – | – | – | – | – | – | –
16 | WWRWPWWPWRRK [MBI 11A10CN] | – | – | – | – | – | – | – | – | – | – | – | – | 4 µg/mL | 64 µg/mL | 16 µg/mL | 16 µg/mL | 64 µg/mL | 2 µg/mL | 4 µg/mL | 32 µg/mL | MIC (E. faecalis; E. faecalis strain EFS001): 4 µg/mL; MIC (E. faecalis; E. faecalis strain EFS008): 16 µg/mL; MIC (S. aureus; S. aureus strain SA014): 4 µg/mL; MIC (S. marcescens; S. marcescens strain SMS003): >128 µg/mL
